One block for each compound: values may come before it.
Legend:
[1] = Blood βHB levels after single oral administration of ketogenic compounds in human subjects
Experimental: Table 1 is data depicting blood BHB levels of 4 male subjects with an average weight of 76 kg in a fasted state that received 5.5 grams of buffered (D) βHB together with 4.5 grams of (D)-1,3BD, 328 mg of Na+ in the form of NaHCO3 and 500 mg of K+ in the form of KHCO3, at 15, 30, 45 and 60 minutes after oral administration. […] That compound is an ester formed by reacting (D)-3-hydroxybutyrate and (D)-1,3-butanediol.
Table 2 is data depicting blood βHB levels after a single administration of 5.5 grams of buffered (D) βHB together with 4.5 grams of (D)-1,3BD, 328 mg of Na+ in the form of NaHCO3 and 500 mg of K+ in the form of KHCO3 in a fasted 70 kg subject who was following a strict ketogenic diet and keto adapted due at 15, 30, 45 and 60 minutes after oral administration.
Table 3 is data depicting blood BHB after a single administration of 10 grams of buffered (D) βHB acid with 328 mg of Na+ in the form of NaHCO3 and 500 mg of K+ in the form of KHCO3 in a fasted 75 kg subject and two fasted 65 kg female subjects at 15, 30, 45, 60 and 90 minutes after administration.
FIG. […] The total dose of 60 grams was administered 3 hours after a meal. […] Those esters are typically administered after an overnight fast on an empty stomach. […] FIG. 5 also includes blood samples for 2 esters of (D)-BHB. The first was from HVMN and consisted of […] of ester (2 commercially available 30 gram bottles). The second was the ester KE4 from KetoneAid and contained 60 net grams (2 commercially available 30 gram bottles). The choice of 60 grams of active ester was based on dosing protocols for elite athletes in the paper “Nutritional Ketosis Alters Fuel Preference and Thereby Endurance in Elite Athletes” Cell Metabolism Cox et al. 2016.

[2] = human, in vivo; cited from earlier work

effectiveness at raising blood levels of (D)-βHB, pure (D) form versus racemic ([1]; human, in vivo): more than twice as effective
Structure (SMILES): C[C@@H](O)CC(=O)O [10 g HB, (D)-beta-hydroxybutyrate]

Structure (SMILES): C[C@@H](O)CCOC(=O)C[C@@H](C)O [(D)-3-hydroxybutyl-(D)-3-hydroxybutyrate]
average serum increase for βHB [2]: 1.0 mmol/10 grams

Structure (SMILES): CC(O)CCO (stereo not shown) [(D)-1,3BD, (D)-1,3-butanediol]
serum level of (D)-beta-hydroxybutyrate reached ([1]; 10 grams, 75 kg person): 0.9 mmol
effectiveness at raising serum levels of (D)-beta-hydroxybutyrate ([1]; (D) enantiomer compared with the racemic form): ~3 times
mean blood BHB level ([1]; Table 4: 10 grams single administration, 72 kg fasted subject, T + 0): 0.0
mean blood BHB level ([1]; Table 4: 10 grams, 72 kg fasted male, +15 Min): 0.6
mean blood BHB level ([1]; Table 4: 10 grams, 72 kg fasted male, +30 Min): 0.9
mean blood BHB level ([1]; Table 4: 10 grams, 72 kg fasted male, +45 Min): 0.9
mean blood BHB level ([1]; Table 4: 10 grams, 72 kg fasted male, +60 Min): 0.5
mean blood BHB level ([1]; Table 4: 10 grams, 72 kg fasted male, +90 Min): 0.3
effectiveness at raising blood levels of (D)-βHB, pure (D) form versus racemic ([1]; for any given weight): more than twice as effective
ketogenic power compared with the free acid (D)-βHB ([1]; gram to gram basis): the liver. On a gram to gram basis, it is a more powerful
ketogenic power relative to the ketone ester ([1]; gram to gram basis): ~90% as powerful as the previously mentioned ketone ester

— US20250120425A1, “Combinations of Ketogenic Supplements for Rapid and Sustained Blood Ketone Levels in Dieters and Patients” (priority 2021, published 2025)
